Where a name gives a salt, the structure may show the parent alone. Read-outs that look alike come from different tables or passages of the source.
Experiments:
Total rat MAO = Total rat MAO activity (rat liver mitochondrial preparation, colourimetric); format: biochemical; settings: rat liver mitochondria; 0.5 mM tyramine; 1 h at 37° C.; read-out: Total MAO inhibitory activity IC50
Procedure: Rat MAO was prepared from rat liver by rinsing the 1 g liver sample several times in 14 ml KCl-EDTA-solution to remove all blood. Then 1 g liver sample was homogenised in 4 ml ice-cold potassium phosphate buffer (0.1 M, pH 7.4) with an Ultra-Turrax homogeniser (setting 11 000 rpm, 4×10 s). After centrifugation at 500 g for 10 min at 4° C. the supernatant was carefully withdrawn and was centrifuged at 12 300 g for 15 min at 4° C. The supernatant was discharged and sedimented mitochondria were resuspended in 4 ml fresh phosphate buffer and centrifuged as previously. The mitochondria were suspended in 4 ml phosphate buffer and homogenized with an Ultra-Turrax homogeniser (setting 11 000 rpm, 2×10 s). Mitochondrial preparate was aliquoted and stored at −70° C. Total MAO activity was measured in a similar way as for VAP-1 SSAO except that 2,4-dichlorophenol was replaced by 1 mM vanillic acid. To each well was added a predetermined amount of inhibitor if required. The amount of inhibitor varied in each assay but was generally at a final concentration of between 10 nM and 800 μM. Controls lacked inhibitor. The inhibitor was in a total volume of 20 μl in water. The following reagents were then added. 0.2 M potassium phosphate buffer pH 7.6 for a total reaction volume of 300 μl, 50 μl of fleshly made chromogenic solution (as above) and 50 μl of MAO preparation. The plates were incubated for 30 min at 37° C. and the background absorbance measured at 490 nm using a Wallac Victor II multilabel counter. To initiate the enzyme reaction 20 μl of 5 mM tyramine (final concentration 0.5 mM) was added and the plate incubated for 1 h at 37° C. The increase in absorbance, reflecting MAO activity, was measured at […]. Inhibition was presented as percent inhibition compared to control after correcting for background absorbance and IC50 values calculated using GraphPad Prism. Clorgyline and pargyline (inhibitors of MAO-A and -B respectively) at 0.5 μM were added to some wells as positive controls for MAO inhibition.

[1] = biological target: T1, Recombinant human VAP-1 SSAO (Homo sapiens, UniProt Q16853); test: In vitro inhibition of VAP-1 SSAO activity (coupled colourimetric method); format: biochemical; settings: for IC50: 1 mM benzylamine, 1 h at 37° C.
T1 sequence (Q16853 1-763): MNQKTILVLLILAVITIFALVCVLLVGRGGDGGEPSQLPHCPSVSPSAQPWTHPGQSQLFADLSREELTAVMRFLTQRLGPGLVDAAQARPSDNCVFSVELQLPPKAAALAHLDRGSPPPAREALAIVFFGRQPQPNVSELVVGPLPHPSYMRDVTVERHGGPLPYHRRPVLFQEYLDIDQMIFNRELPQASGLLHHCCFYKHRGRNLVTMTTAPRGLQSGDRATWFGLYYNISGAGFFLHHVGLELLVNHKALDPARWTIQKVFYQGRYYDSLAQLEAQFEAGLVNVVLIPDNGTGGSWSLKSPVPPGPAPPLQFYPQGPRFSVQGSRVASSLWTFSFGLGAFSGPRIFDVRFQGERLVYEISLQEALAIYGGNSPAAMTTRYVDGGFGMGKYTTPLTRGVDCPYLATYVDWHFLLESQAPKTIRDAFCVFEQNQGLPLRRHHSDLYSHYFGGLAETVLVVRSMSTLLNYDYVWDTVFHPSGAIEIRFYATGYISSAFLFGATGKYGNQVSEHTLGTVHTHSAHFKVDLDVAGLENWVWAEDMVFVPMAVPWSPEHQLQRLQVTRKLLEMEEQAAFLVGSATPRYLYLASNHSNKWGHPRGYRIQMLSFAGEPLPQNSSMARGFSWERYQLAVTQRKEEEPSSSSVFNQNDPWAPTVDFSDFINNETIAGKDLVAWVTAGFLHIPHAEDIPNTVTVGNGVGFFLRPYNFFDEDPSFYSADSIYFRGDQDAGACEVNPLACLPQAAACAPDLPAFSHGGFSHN
Procedure: VAP-1 SSAO activity was measured using the coupled colourimetric method essentially as described for monoamine oxidase and related enzymes (Holt, A., et al., Anal. Biochem. 244:384-392 (1997)). Recombinant human VAP-1 SSAO expressed in Chinese Hamster Ovary (CHO) cells was used as a source of VAP-1 SSAO for activity measurements. […] These cells and their culture have previously been described (Smith, D. J., et al., J. Exp. Med. 188:17-27 (1998)). A cell lysate was prepared by suspending approximately 3.6×10^8 cells in 25 ml lysis buffer (150 mM NaCl, 10 mM Tris-Base pH 7.2, 1.5 mM MgCl2, 1% NP40) and incubating at 4° C. overnight on a rotating table. The lysate was clarified by centrifugation at 18000 g for 5 min at room temperature and the supernatant used directly in the assay. The VAP-1 SSAO assay was performed in 96 well microtitre plates as follows. To each well was added a predetermined amount of inhibitor if required. […] Controls lacked inhibitor. The inhibitor was in a total volume of 20 μl in water. The following reagents were then added. 0.2 M potassium phosphate buffer pH 7.6 to a total reaction volume of 200 μl, 45 μl of freshly made chromogenic solution containing 1 mM 2,4-dichlorophenol, 500 μM 4-aminoantipyrine and 4 U/ml horseradish peroxidase and an amount of CHO cell lysate containing VAP-1 SSAO that caused a change of 0.6 A490 per h. […] The plates were incubated for 30 min at 37° C. and the background absorbance measured at 490 nm using a Wallac Victor II multilabel counter. To initiate the enzyme reaction 20 μl 10 mM benzylamine (final concentration=1 mM) was added and the plate incubated for 1 h at 37° C. The increase in absorbance, reflecting VAP-1 SSAO activity, was measured at 490 nm. Inhibition was presented as percent inhibition compared to control after correcting for background absorbance and IC50 values calculated using GraphPad Prism.

[2] = lysate of CHO cells expressing recombinant human VAP-1 SSAO, read-out: VAP-1 SSAO inhibitory activity IC50
[3] = ratio of total rat MAO IC50 to human VAP-1 SSAO IC50
[4] = VAP-1 SSAO inhibitory activity IC50, lysate of CHO cells expressing recombinant human VAP-1 SSAO

Compound | IC50 (Total rat MAO) [µM] | IC50 [1, 2] [nM] | Selectivity for VAP-1 SSAO over MAO [1, 3] | IC50 [1, 4] [nM] | Selectivity for VAP-1 SSAO over MAO [1]
2-(1-methylhydrazino)-1-phenylethanol hydrogenmaleate [Compound 6] | 8.9 | 65 | 137 | – | –
C[C@@H]([C@H](O)c1ccccc1)N(C)N (racemic) [Compound 10] | 36 | – | 120 | 300 | –
CC(C(O)c1ccccc1)N(C)N (racemic) [Compound 11] | 16 | – | 94 | 170 | –
C[C@@H]([C@H](O)c1ccccc1)N(C)N (racemic) [Compound 12] | – | – | 138 | 290 | –
CCN(N)[C@@H](C)[C@H](O)c1ccccc1 (racemic) [Compound 13] | – | 1520 | 16 | – | –
CCCN(N)C(C)C(O)c1ccccc1 (racemic) [Compound 14] | – | 129000 | >6 | – | –
C[C@@H]([C@H](O)c1ccccc1)N(N)CC1CC1 (racemic) [Compound 15] | – | 1380 | 7 | – | –
CC(C(O)c1ccccc1)N(N)Cc1ccccc1 (racemic) [Compound 16] | – | 4000 | 62 | – | –
C[C@@H]([C@H](O)c1ccccc1)N(N)Cc1ccccc1 (racemic) [Compound 17] | – | 34000 | 6 | – | –
COc1ccc(CN(N)C(C)C(O)c2ccccc2)cc1 (racemic) [Compound 18] | – | 2600 | 9 | – | –
CN(N)C(C)(C)C(O)c1ccccc1 (racemic) [Compound 20] | – | 520 | 98 | – | –
CC[C@@H]([C@H](O)c1ccccc1)N(C)N (racemic) [Compound 21] | – | 260 | 158 | – | –
CCC[C@@H](NN)[C@@H](O)c1ccccc1 (racemic) [Compound 22] | – | 1200 | 9 | – | –
CCC[C@@H]([C@H](O)c1ccccc1)N(C)N (racemic) [Compound 23] | – | 260 | 108 | – | –
CC(C)CN(N)CC(O)c1ccccc1 (racemic) [Compound 24] | – | 350 | 32 | – | –
CN(N)CC(O)c1ccccc1Cl (racemic) [Compound 29] | – | 270 | 85 | – | –
CN(N)CC(O)c1ccc(Cl)cc1 (racemic) [Compound 30] | 21 | 310 | – | – | 68
COc1cccc(C(O)CNN)c1 (racemic) [Compound 33] | 9.1 | 52 | 175 | – | –

Compound | IC50 (Total rat MAO) [µM] | IC50 [1, 2] [nM] | Selectivity for VAP-1 SSAO over MAO [1, 3] | IC50 [1, 4] [nM] | Selectivity for VAP-1 SSAO over MAO [1]
COc1cccc(C(O)CN(C)N)c1 (racemic) [Compound 34] | 44 | 280 | – | – | 157
COc1ccc(C(O)CNN)cc1 (racemic) [Compound 35] | – | 29 | 207 | – | –
COc1ccc(C(O)CNN)cc1 (racemic) [Compound 36] | – | 17 | 294 | – | –
COc1ccc(C(CN(C)N)OC)cc1 (racemic) [Compound 37] | – | 420 | 105 | – | –
NN(Cc1ccccc1)C(CO)Cc1ccccc1 (racemic) [Compound 38] | – | > 50000 | ≈10 | – | –
NN(Cc1ccccc1)C1CCCCC1O (racemic) [Compound 41] | – | 21900 | 5 | – | –
NN(Cc1ccccc1)[C@@H]1CCCC[C@H]1O (racemic) [Compound 42] | 106 | 3700 | 29 | – | –
CN(N)[C@@H]1CCCC[C@]1(O)c1ccccc1 (racemic) [Compound 43] | – | 520 | 19 | – | –
COc1cc2c(cc1OC)C(CCO)N(N)CC2 (racemic) [Compound 45] | – | 8100 | 6 | – | –
NN1Cc2ccccc2CC1CO (racemic) [Compound 46] | – | > 10000 | <61 | – | –
COc1cc2c(cc1OC)CN(N)C(CO)C2 (racemic) [Compound 47] | – | > 10000 | <150 | – | –
C[C@@H]([C@H](O)c1ccccc1)N(C)N (relative stereo) [Compound 2, (1R*,2S*)-2-(1-Methylhydrazino)-1-phenyl-1-propanol hydrochloride] | – | – | 111 | 350 | –
C[C@H]([C@@H](O)c1ccccc1)[N+](C)(C)N (relative stereo) [Compound 4, (1R*,2S*)-1-(2-hydroxy-1-methyl-2-phenylethyl)-1,1-dimethylhydrazinium iodide] | – | > 50000 | ≈10 | – | –
CN(N)[C@H](c1ccccc1)C(O)c1ccccc1 (stereo in doubt) [Compound 5, (1R*,2S*)-2-(1-methylhydrazino)-1,2-diphenylethanol hydrogemnaleate] | – | 410 | 132 | – | –
C[C@@H]([C@H](O)c1ccccc1)N(C)N [Compound 1, (1R,2S)-2-(1-Methylhydrazino)-1-phenyl-1-propanol hydrogenmaleate] | – | – | 141 | 220 | –
COc1cccc(C(CN(C)N)OC)c1 (stereo not shown) [Compound 7, 1-[2-methoxy-2-(m-methoxyphenyl)ethyl]-1-methylhydrazine Hydrogenfumarate] | – | 410 | 107 | – | –
COc1cc2c(cc1OC)C(CO)N(N)CC2 (stereo not shown) [Compound 8, 2-Amino-6,7-dimethoxy-1,2,3,4-tetrahydroisoquinoline-1-methanol hydrochloride] | – | > 10000 | <8 | – | –
COc1ccc(C(O)CN(C)N)cc1 (stereo not shown) [Compound 9, 2-(1-methylhydrazino)-1-(p-methoxyphenyl)ethanol hydrogenfumarate] | – | 310 | 116 | – | –

From US6624202B2, “Inhibitors of copper-containing amine oxidases” (priority 2000, dated 2003)
